In PubChem BioAssay (NCI):
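Grown in 96-well plates, cells were treated for 48 hours with each compound at five concentrations. Insufficient inhibition: endpoint recorded as highest concentration tested. At the TGI there is no net growth.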

Assays:
Experiment in all cases: DTP human tumour cell line panel, 48 h
UACC-257 melanoma = test system: UACC-257 melanoma
SNB-75 CNS = test system: SNB-75 CNS
SK-OV-3 ovarian = test system: SK-OV-3 ovarian
SN12C renal = test system: SN12C renal
LOX IMVI melanoma = test system: LOX IMVI melanoma
RXF 393 renal = test system: RXF 393 renal
SF-539 CNS = test system: SF-539 CNS
MDA-N = test system: MDA-N
NCI-H226 lung = test system: NCI-H226 lung
SNB-19 CNS = test system: SNB-19 CNS
HCC-2998 colon = test system: HCC-2998 colon

`O=C(c1ccco1)N(C(=O)N1CCC(c2ccccc2)CC1)c1ccccc1` was tested, and the TGI (UACC-257 melanoma) was greater than 100 µM, the TGI (SNB-75 CNS) was 46.2 µM and the TGI (SK-OV-3 ovarian) was greater than 100 µM. The TGI (SN12C renal) was greater than 100 µM, the TGI (LOX IMVI melanoma) was greater than 100 µM and the TGI (RXF 393 renal) was 90.9 µM. It also gave a TGI (SF-539 CNS) greater than 100 µM, a TGI (MDA-N) greater than 100 µM and a TGI (NCI-H226 lung) greater than 100 µM. The TGI (SNB-19 CNS) was greater than 100 µM.
Molecule `CC1(C)N=C(N)N=C(N)N1c1cccc(Cl)c1` has a TGI (UACC-257 melanoma) greater than 100 µM, a TGI (SNB-75 CNS) greater than 100 µM and a TGI (HCC-2998 colon) greater than 100 µM. For the same molecule, the TGI (SK-OV-3 ovarian) was greater than 100 µM, the TGI (SN12C renal) was greater than 100 µM and the TGI (LOX IMVI melanoma) was greater than 100 µM. The TGI (RXF 393 renal) was greater than 100 µM, the TGI (SF-539 CNS) was greater than 100 µM and the TGI (MDA-N) was greater than 100 µM. It also gave a TGI (SNB-19 CNS) greater than 100 µM.
Work on `COc1ccc(C(=O)/C=C/SC(=NC#N)SC)cc1` yielded a TGI (UACC-257 melanoma) of 40.5 µM, a TGI (SNB-75 CNS) of 89.2 µM and a TGI (SK-OV-3 ovarian) of 47.5 µM. It also gave a TGI (SN12C renal) of 75.2 µM, a TGI (RXF 393 renal) of 35.1 µM and a TGI (SF-539 CNS) of 45.7 µM. The TGI (NCI-H226 lung) was 43.5 µM and the TGI (SNB-19 CNS) was 35.2 µM.
`CCOC(=O)C(NC(=O)c1cccc(Cl)c1)(Nc1cccc(C)c1)C(F)(F)F` (stereo unspecified) gave a TGI (UACC-257 melanoma) of 71.5 µM, a TGI (SNB-75 CNS) of 43.9 µM and a TGI (HCC-2998 colon) of 31.4 µM. It also gave a TGI (SN12C renal) of 50.8 µM, a TGI (LOX IMVI melanoma) of 30.7 µM and a TGI (RXF 393 renal) of 26.2 µM. For the same molecule, the TGI (SF-539 CNS) was 32.7 µM, the TGI (MDA-N) was 38.8 µM and the TGI (NCI-H226 lung) was 30.7 µM. It also gave a TGI (SNB-19 CNS) greater than 100 µM.
`NCCCCNCCCN1CCOC1=O` was tested, and the TGI (UACC-257 melanoma) was greater than 100 µM, the TGI (SNB-75 CNS) was greater than 100 µM and the TGI (HCC-2998 colon) was greater than 100 µM. The TGI (SK-OV-3 ovarian) was greater than 100 µM, the TGI (SN12C renal) was greater than 100 µM and the TGI (LOX IMVI melanoma) was greater than 100 µM. For the same molecule, the TGI (SF-539 CNS) was greater than 100 µM, the TGI (MDA-N) was greater than 100 µM and the TGI (NCI-H226 lung) was greater than 100 µM. For the same molecule, the TGI (SNB-19 CNS) was greater than 100 µM.
`CO[P@@]1(=O)O[C@@H](c2ccccc2)[C@H](O)[C@]1(O)c1ccccc1` was tested, and the TGI (UACC-257 melanoma) was greater than 100 µM, the TGI (SNB-75 CNS) was greater than 100 µM and the TGI (SK-OV-3 ovarian) was greater than 100 µM. The TGI (SN12C renal) was greater than 100 µM, the TGI (LOX IMVI melanoma) was greater than 100 µM and the TGI (RXF 393 renal) was greater than 100 µM. It also gave a TGI (SF-539 CNS) greater than 100 µM, a TGI (MDA-N) greater than 100 µM and a TGI (NCI-H226 lung) greater than 100 µM. It also gave a TGI (SNB-19 CNS) greater than 100 µM.
Work on `Cc1cc(-c2cc(C(C)(C)C)c(O)c(C(C)(C)C)c2)c(C)cc1-c1cc(C(C)(C)C)c(O)c(C(C)(C)C)c1` yielded a TGI (UACC-257 melanoma) greater than 100 µM, a TGI (SNB-75 CNS) greater than 100 µM and a TGI (SK-OV-3 ovarian) greater than 100 µM. It also gave a TGI (SN12C renal) greater than 100 µM, a TGI (LOX IMVI melanoma) greater than 100 µM and a TGI (SF-539 CNS) greater than 100 µM. It also gave a TGI (MDA-N) greater than 100 µM, a TGI (NCI-H226 lung) greater than 100 µM and a TGI (SNB-19 CNS) greater than 100 µM.
`CSc1ncc2c(n1)-c1ccccc1OC2NC1CC1` (stereo unspecified) gave a TGI (UACC-257 melanoma) greater than 100 µM, a TGI (SNB-75 CNS) greater than 100 µM and a TGI (SK-OV-3 ovarian) greater than 100 µM. It also gave a TGI (SN12C renal) greater than 100 µM, a TGI (LOX IMVI melanoma) greater than 100 µM and a TGI (RXF 393 renal) greater than 100 µM. The TGI (SF-539 CNS) was greater than 100 µM, the TGI (MDA-N) was greater than 100 µM and the TGI (NCI-H226 lung) was greater than 100 µM. The TGI (SNB-19 CNS) was greater than 100 µM.
Work on `CCCn1cc2c3c(cccc31)C1C=C(C)CN(C)C1C2` (stereo unspecified) yielded a TGI (UACC-257 melanoma) of 29.6 µM, a TGI (SNB-75 CNS) of 39.3 µM and a TGI (HCC-2998 colon) of 38 µM. For the same molecule, the TGI (SK-OV-3 ovarian) was 71.4 µM, the TGI (SN12C renal) was 60.9 µM and the TGI (LOX IMVI melanoma) was 39.8 µM. For the same molecule, the TGI (RXF 393 renal) was 52.7 µM, the TGI (SF-539 CNS) was 59.5 µM and the TGI (NCI-H226 lung) was 40.9 µM. For the same molecule, the TGI (SNB-19 CNS) was 62.1 µM.
For `O=C1CSC(c2c[nH]c3ccccc23)N1c1ccc(Cl)cc1Cl` (stereo unspecified), the TGI (UACC-257 melanoma) was greater than 100 µM, the TGI (SNB-75 CNS) was greater than 100 µM and the TGI (HCC-2998 colon) was greater than 100 µM. For the same molecule, the TGI (SK-OV-3 ovarian) was greater than 100 µM, the TGI (SN12C renal) was greater than 100 µM and the TGI (LOX IMVI melanoma) was greater than 100 µM. The TGI (RXF 393 renal) was greater than 100 µM, the TGI (SF-539 CNS) was greater than 100 µM and the TGI (MDA-N) was greater than 100 µM. For the same molecule, the TGI (SNB-19 CNS) was greater than 100 µM.
`CN(C)CCNCCCNc1c2ccccc2nc2cccc([N+](=O)[O-])c12` gave a TGI (UACC-257 melanoma) of 0.525 µM, a TGI (SNB-75 CNS) of 0.0573 µM and a TGI (HCC-2998 colon) of less than 0.0184 µM. For the same molecule, the TGI (SK-OV-3 ovarian) was 0.26 µM, the TGI (SN12C renal) was 0.279 µM and the TGI (LOX IMVI melanoma) was less than 0.0253 µM. The TGI (SF-539 CNS) was 0.263 µM, the TGI (NCI-H226 lung) was 0.102 µM and the TGI (SNB-19 CNS) was 0.177 µM.
